Values of other authors, collected in patent US12605362B2, “Eletriptan hydrobromide for treatment of spinal cord injury and improvement of locomotor function” (TECHNOPHAGE, INVESTIGAÇÃO E DESENVOLVIMENTO EM …, priority 2020, dated 2026).

Conditions: in the presence of the selective 5-HT2 antagonists SB204741 and SB242084; cited from earlier work

c1ccc2nc(N3CCNCC3)ccc2c1 [quipazine]
locomotor-like movements: induction in locomotor-like movements
